Test results published in US6861220B2, “Genetic screening methods” (Ramot University Authority for Applied Research & …, priority 1999, dated 2005).

Test system: Clone 12 cells (HGPRT-deficient HT1080 fibrosarcoma cells)
Experiment: Chemical synthetic lethality screen: retention of HGPRT-tpzGFP survival plasmid (tpzGFP/sphGFP fluorescence ratio) in microplates
Assay type: cell-based, human
Settings: for detection of chemical synthetic lethality (survival plasmid retention) in blind large-scale test: Clone 12 in 1200 wells, medium lacking selection, chemicals added at random together with guanine (FIG. 9)
Description: For pIS, selection in G418 (Calbiochem) was carried out at 400 microg/ml, while maintenance was at 50 microg/ml. For the HGPRT-tpzGFP survival plasmid, selection in hygromycin B (Sigma) was at 150 microg/ml while maintenance was at 50 microg/ml. […] GATA medium was DMEM with 10% dialyzed FCS, plus 3.5 microM guanine-HCI, 0.4 microM aminopterin, 16 microM thymidine and 35 microM adenine.
For fluorescent scanning, cells were trypsinized and distributed at 30,000 cells/well into 96 well microplates (TPP). Growth medium was changed twice a week and plates were grown for up to 75 days. […] Plates were prepared for scanning by replacement of medium in wells with Hank's balanced salt solution without phenol red. […] Plates were scanned with an FL600 microplate fluorescence reader using the KC4 software (Biotek Instruments). Excitation for sphGFP was at 380 nin with a bandpass of 20 nm, while emission was measured at 508 nm with a bandpass of 40 nm.
Excitation of tpzGFP was at 495 nm with a bandpass of 20 mn, while emission was measured at 535 nm with a bandpass of 40 nm. To avoid possible artifacts, all wells within a given experiment were assayed for the fluorescence of the two GFP mutants using fixed sensitivities. Integrated sphGFP was used as an internal control for the number of cells. This was achieved by dividing the relative fluorescence resulting from the episomal tpzGFP vector by the relative fluorescence for sphGFP for each well. This ratio was then divided by the average fluorescence ratio for cells maintained under hygromycin B or HAT selection, resulting in a value representing percent remaining fluorescence for each well as compared to wells maintained under continuous selection. The data points are an average for all wells and the calculated standard deviation. Cells were returned to growth medium immediately following scanning.
Its loss or retention can be determined by measuring its normalized fluorescence in a microplate reader. It was then necessary to test whether these features would enable the tracing of a synthetic lethality condition. […] Under these conditions, normal HGPRT-positive cells can use supplied guanine to produce GMP via the salvage pathway, and survive, while HGPRT-deficient cells die.

Compound	retention of the survival plasmid (Clone 12 cells, 96 well plates, serial dilutions of drug and of guanine, three weeks (FIGS. 7, 8))	detection of chemical synthetic lethality (survival plasmid retention) in blind large-scale test	retention of the survival plasmid over time (Clone 12 cells, GATA medium + 12.5 microgram/ml MPA, entire time period (FIG. 6))	retention of the survival plasmid (tpzGFP to sphGFP fluorescence ratio), dose response (Clone 12 cells, GATA medium + MPA at successively higher concentrations, read after two weeks (FIG. 5))
NC(=O)c1ncn([C@@H]2O[C@H](CO)[C@@H](O)[C@H]2O)c1O [mizoribine]	caused retention of the survival plasmid	clearly detected	–	–
N[C@@H](CN(O)N=O)C(=O)O [alanosine]	–	not retained	–	–
COc1c(C)c2c(c(O)c1C/C=C(\C)CCC(=O)O)C(=O)OC2 [MPA, mycophenolic acid]	–	clearly detected	retention of the survival plasmid for the entire time period	caused increasing retention of the survival plasmid
